Target: HCV RdRp (NS5B) (UniProt P26663)
Assay type: biochemical, hepatitis C virus

Chain of HCV RdRp (NS5B) (P26663 whole entry, looked up): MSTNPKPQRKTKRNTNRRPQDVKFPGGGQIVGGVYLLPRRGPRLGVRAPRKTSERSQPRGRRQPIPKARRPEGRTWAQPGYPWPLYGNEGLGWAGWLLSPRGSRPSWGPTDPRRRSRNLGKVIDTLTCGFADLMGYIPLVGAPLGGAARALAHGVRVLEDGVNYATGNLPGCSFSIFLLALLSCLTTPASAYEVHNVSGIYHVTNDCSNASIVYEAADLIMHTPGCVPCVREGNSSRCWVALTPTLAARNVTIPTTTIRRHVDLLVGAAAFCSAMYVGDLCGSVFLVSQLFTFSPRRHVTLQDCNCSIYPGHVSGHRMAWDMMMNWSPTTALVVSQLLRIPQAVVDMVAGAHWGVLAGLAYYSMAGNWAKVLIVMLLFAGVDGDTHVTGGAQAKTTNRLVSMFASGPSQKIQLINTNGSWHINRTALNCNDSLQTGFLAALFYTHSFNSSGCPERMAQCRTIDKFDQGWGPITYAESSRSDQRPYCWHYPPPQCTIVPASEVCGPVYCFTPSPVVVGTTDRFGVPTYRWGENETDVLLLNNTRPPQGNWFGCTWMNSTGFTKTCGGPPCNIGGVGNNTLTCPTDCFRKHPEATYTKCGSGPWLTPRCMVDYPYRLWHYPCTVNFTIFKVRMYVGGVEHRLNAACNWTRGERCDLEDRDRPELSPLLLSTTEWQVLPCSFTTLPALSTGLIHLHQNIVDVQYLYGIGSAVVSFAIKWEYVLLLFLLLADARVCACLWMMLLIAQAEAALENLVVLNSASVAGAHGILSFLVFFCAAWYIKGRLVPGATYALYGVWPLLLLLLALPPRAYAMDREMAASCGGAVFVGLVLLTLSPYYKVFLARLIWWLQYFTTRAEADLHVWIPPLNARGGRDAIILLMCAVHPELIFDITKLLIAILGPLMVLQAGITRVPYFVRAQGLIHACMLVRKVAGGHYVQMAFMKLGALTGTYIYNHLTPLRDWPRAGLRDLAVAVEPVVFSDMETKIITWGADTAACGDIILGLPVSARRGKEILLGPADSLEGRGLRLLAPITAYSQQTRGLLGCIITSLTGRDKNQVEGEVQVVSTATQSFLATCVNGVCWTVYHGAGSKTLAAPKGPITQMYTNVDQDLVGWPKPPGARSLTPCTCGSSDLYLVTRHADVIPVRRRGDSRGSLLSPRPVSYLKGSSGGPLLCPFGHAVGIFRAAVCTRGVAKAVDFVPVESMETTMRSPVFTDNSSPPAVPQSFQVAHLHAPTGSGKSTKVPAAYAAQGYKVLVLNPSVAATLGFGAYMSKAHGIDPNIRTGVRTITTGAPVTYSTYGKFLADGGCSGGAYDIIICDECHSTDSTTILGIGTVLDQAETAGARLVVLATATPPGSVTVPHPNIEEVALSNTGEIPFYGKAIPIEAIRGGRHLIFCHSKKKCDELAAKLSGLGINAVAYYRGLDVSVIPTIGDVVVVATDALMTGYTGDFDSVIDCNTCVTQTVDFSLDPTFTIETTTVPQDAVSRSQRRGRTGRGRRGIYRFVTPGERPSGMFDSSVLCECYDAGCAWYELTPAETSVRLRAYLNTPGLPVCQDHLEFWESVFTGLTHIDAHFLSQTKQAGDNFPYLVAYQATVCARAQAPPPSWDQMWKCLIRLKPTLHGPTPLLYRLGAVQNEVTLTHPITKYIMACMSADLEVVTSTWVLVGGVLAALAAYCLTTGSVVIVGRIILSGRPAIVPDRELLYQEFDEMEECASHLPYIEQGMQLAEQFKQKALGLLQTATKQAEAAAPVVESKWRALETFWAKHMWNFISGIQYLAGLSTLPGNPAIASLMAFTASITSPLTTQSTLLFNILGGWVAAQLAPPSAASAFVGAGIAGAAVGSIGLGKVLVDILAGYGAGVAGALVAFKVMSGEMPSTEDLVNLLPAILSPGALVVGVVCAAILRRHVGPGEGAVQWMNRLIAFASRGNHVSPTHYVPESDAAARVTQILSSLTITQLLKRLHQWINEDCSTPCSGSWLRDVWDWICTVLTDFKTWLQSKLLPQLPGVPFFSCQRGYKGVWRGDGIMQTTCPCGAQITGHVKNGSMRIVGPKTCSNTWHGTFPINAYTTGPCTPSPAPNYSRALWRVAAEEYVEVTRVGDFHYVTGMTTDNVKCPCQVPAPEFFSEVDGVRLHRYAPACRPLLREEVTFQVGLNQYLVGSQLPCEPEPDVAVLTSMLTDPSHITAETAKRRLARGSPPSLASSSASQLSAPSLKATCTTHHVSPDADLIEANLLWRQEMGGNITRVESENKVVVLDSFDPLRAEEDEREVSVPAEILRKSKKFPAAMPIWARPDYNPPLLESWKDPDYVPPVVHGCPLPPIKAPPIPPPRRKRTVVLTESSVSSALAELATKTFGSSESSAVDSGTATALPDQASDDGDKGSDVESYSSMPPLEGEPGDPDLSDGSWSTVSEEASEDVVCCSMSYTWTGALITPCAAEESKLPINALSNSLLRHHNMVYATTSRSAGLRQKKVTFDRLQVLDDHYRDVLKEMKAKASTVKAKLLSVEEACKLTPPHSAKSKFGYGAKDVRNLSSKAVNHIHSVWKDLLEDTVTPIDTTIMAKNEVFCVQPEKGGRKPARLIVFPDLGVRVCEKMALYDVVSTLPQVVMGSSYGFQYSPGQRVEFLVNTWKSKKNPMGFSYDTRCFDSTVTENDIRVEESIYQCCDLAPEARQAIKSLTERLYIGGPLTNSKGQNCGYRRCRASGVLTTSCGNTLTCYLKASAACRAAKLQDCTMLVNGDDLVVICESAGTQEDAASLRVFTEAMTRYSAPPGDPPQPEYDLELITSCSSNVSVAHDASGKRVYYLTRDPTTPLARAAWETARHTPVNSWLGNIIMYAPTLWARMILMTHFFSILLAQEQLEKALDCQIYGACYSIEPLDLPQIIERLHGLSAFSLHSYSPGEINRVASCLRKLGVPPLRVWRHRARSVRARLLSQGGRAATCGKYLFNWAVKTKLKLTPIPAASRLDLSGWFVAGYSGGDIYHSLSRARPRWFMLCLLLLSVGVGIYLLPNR

`Cc1ccc(NC(=O)CC2CN(C(=O)CN)CCN2C(=O)OCC2c3ccccc3-c3ccccc32)cc1` (racemic) [Compound 182, (+/−)-4-(2-AMINO-ACETYL)-2-(P-TOLYLCARBAMOYL-METHYL)-PIPERAZINE-1-CARBOXYLIC ACID 9H-FLUOREN-9-YLMETHYL ESTER] and `Cc1ccc(NC(=O)C2CC(OC(=O)CCN)CN2C(=O)OCC2c3ccccc3-c3ccccc32)cc1` [Compound 130, (S)-(4-(R)-(3-AMINO-PROPIONYLOXY)-2-P-TOLYLCARBAMOYL-PYRROLIDINE-1-CARBOXYLIC ACID 9H-FLUOREN-9-YLMETHYL ESTER)] cannot be ordered by IC50: greater than 50 µM for the first, greater than 50 µM for the second.

`Cc1ccc(NC(=O)C(CCN)NC(=O)OCC2c3ccccc3-c3ccccc32)cc1` [Compound 400, (R)-(3-AMINO-1-P-TOLYLCARBAMOYL-PROPYL)-CARBAMIC ACID 9H-FLUOREN-9-YLMETHYL ESTER] and `Cc1ccc(NC(=O)C(CCO)NC(=O)OCC2c3ccccc3-c3ccccc32)cc1` [Compound 374, (S)-(3-HYDROXY-1-P-TOLYLCARBAMOYL-PROPYL)-CARBAMIC ACID 9H-FLUOREN-9-YLMETHYL ESTER] cannot be ordered by IC50: greater than 50 µM for the first, greater than 50 µM for the second.

First: Cc1cc2cc(NC(=O)[C@H](CCCCNC(=O)CN)NC(=O)Nc3ccc4c(c3)Cc3ccccc3-4)ccc2[nH]1 [Compound 298, (S)-6-(2-AMINO-ACETYLAMINO)-2-[3-(9H-FLUOREN-2-YL)-UREIDO]-HEXANOIC ACID (2-METHYL-1H-INDOL-5-YL)-AMIDE]
Second: Cc1ccc(NC(=O)[C@H](CCCCN)NC(=O)Nc2ccc(NCc3ccccc3)cc2)cc1 [Compound 224, (S)-6-AMINO-2-[3-(4-BENZYLAMINO-PHENYL)-UREIDO]-HEXANOIC ACID P-TOLYLAMIDE]
The IC50 of the first is higher: greater than 50 µM for the first, 10 to 50 µM for the second. The second is the more potent here.

`NCCCC[C@H](NC(=O)Nc1ccc(OCc2ccccc2)cc1)C(=O)OCCN` [Compound 259, (S)-6-AMINO-2-[3-(4-BENZYLOXY-PHENYL)-UREIDO]-HEXANOIC ACID (2-AMINO-ETHYL)-ESTER] and `CCCCOc1ccc(NC(=O)N[C@@H](CCCCN)C(=O)Nc2ccc(C)cc2)cc1` [Compound 244, (S)-6-AMINO-2-[3-(4-BUTOXY-PHENYL)-UREIDO]-HEXANOIC ACID P-TOLYLAMIDE] cannot be ordered by IC50: greater than 50 µM for the first, greater than 50 µM for the second.

Compared with `Cc1ccc(NC(=O)[C@H](CCCCN)NS(=O)(=O)c2ccc(Cl)c(Cl)c2)cc1` [Compound 392, (S)-6-AMINO-2-(3,4-DICHLORO-BENZENESULFONYLAMINO)-HEXANOIC ACID P-TOLYLAMIDIE], `Cc1ccc(NC(=O)[C@H](CCCCN)NC(=O)NCc2ccc(Cl)c(Cl)c2)cc1` [Compound 140, (S)-6-AMINO-2-[3-(3,4-DICHLORO-BENZYL)-UREIDO]-HEXANOIC ACID P-TOLYLAMIDE] is lower in IC50: greater than 50 µM for the first, 10 to 50 µM for the second. The second is the more potent here.

`Cc1ccc(NC(=O)C(CCCCN)NS(=O)(=O)c2ccc(-c3ccccc3)cc2)cc1` [Compound 70, (S)-6-AMINO-2-(BIPHENYL-4-SULFONYLAMINO)-HEXANOIC ACID P-TOLYLAMIDE] and `Cc1ccc(NC(=O)C(CCCCN)NC(=O)c2ccccc2-c2ccccc2)cc1` [Compound 54, (S)-BIPHENYL-2-CARBOXYLIC ACID (5-AMINO-1-P-TOLYLCARBAMOYL-PENTYL)-AMIDE] cannot be ordered by IC50: greater than 50 µM for the first, greater than 50 µM for the second.

`CCCCOc1ccc(S(=O)(=O)N[C@@H](CCCCN)C(=O)Nc2ccc(C)cc2)cc1` [Compound 390, (S)-6-AMINO-2-(4-BUTOXY-BENZENESULFONYLAMINO)-HEXANOIC ACID P-TOLYLAMIDE] and `Cc1ccc(CNC(=O)NC(CCCCN)C(=O)Nc2ccc(C)cc2)cc1` [Compound 136, (S)-6-AMINO-2-[3-(4-METHYL-BENZYL)-UREIDO]-HEXANOIC ACID P-TOLYLAMIDE] cannot be ordered by IC50: greater than 50 µM for the first, greater than 50 µM for the second.

`COc1ccccc1CNCC(=O)N[C@@H](CCCCN)C(=O)Nc1ccc(C)cc1` [Compound 341, (S)-6-AMINO-2-[2-(2-METHOXY-BENZYLAMINO)-ACETYLAMINO]-HEXANOIC ACID P-TOLYLAMIDE] and `Cc1ccc(NC(=O)C(CCCCN)NC(=O)c2c(C)ccc3ccccc23)cc1` [Compound 63, (S)-2-METHYL-NAPHTHALENE-1-CARBOXYLIC ACID (5-AMINO-1-P-TOLYLCARBAMOYL-PENTYL)-AMIDE] cannot be ordered by IC50: greater than 50 µM for the first, greater than 50 µM for the second.

`Cc1ccc(NC(=O)[C@H](CCCCN)NC(=O)Nc2ccc(OCc3ccc(F)c(F)c3)cc2)cc1` [Compound 288, (S)-6-AMINO-2-{3-[4-(3,4-DIFLUORO-BENZYLOXY)-PHENYL]-UREIDO}-HEXANOIC ACID P-TOLYLAMIDE] and `Cc1ccc(NC(=O)C(CCCCN)NC(=O)Nc2ccc(C(F)(F)F)cc2)cc1` [Compound 42, (S)-6-AMINO-2-[3-(4-TRIFLUOROMETHYL-PHENYL)-UREIDO]-HEXANOIC ACID P-TOLYLAMIDE] fall in the same range of IC50: 10 to 50 µM for the first, 10 to 50 µM for the second.

First: NCCCC[C@H](NC(=O)Nc1cccc2ccccc12)C(=O)Nc1ccc(CN(C(=O)c2ccco2)C2CCCCC2)cc1 [Compound 31, (S)-FURAN-2-CARBOXYLIC ACID {4-[6-AMINO-2-(3-NAPHTHALEN-1-YL-UREIDO)-HEXANOYLAMINO]-BENZYL}-CYCLOHEXYL-AMIDE]
Second: CC[C@H](NC(=O)OCC1c2ccccc2-c2ccccc21)C(=O)Nc1ccc(CN(C(=O)c2ccco2)C2CCCCC2)cc1 [Compound 28, (S)-[1-(4-{[CYCLOHEXYL-(FURAN-2-CARBONYL)-AMINO]-METHYL}-PHENYLCARBAMOYL)-PROPYL]-CARBAMIC ACID 9H-FLUOREN-9-YLMETHYL ESTER]
The IC50 of the first is lower: 10 to 50 µM for the first, greater than 50 µM for the second.

First: CC(C)(NC(=O)OCC1c2ccccc2-c2ccccc21)C(=O)Nc1ccc(C=CC(=O)O)cc1 [Compound 39, 3-{4-[2-((9H-FLUOREN-9-YLMETHOXYCARBONYL)AMINO)-2-METHYL-PROPIONYLAMINO]-PHENYL}-ACRYLIC ACID]
Second: Cc1ccc(NC(=O)C(CNC(=O)CNC(=O)CN)NC(=O)OCC2c3ccccc3-c3ccccc32)cc1 [Compound 222, (S)-{2-[2-(2-AMINO-ACETYLAMINO)-ACETYLAMINO]-1-P-TOLYLCARBAMOYL-ETHYL}-CARBAMIC ACID 9H-FLUOREN-9-YLMETHYL ESTER]
The IC50 of the first is higher: greater than 50 µM for the first, 10 to 50 µM for the second.

Compared with `CC(C)(C)OC(=O)NCCCC[C@H](NC(=O)OCC1c2ccccc2-c2ccccc21)C(=O)NCCc1c[nH]c2ccccc12` [Compound 56, (S)-{5-((9H-FLUOREN-9-YLMETHOXYCARBONYL)AMINO)-5-[2-(1H-INDOL-3-YL)-ETHYLCARBAMOYL]-PENTYL}-CARBAMIC ACID TERT-BUTYL ESTER], `Cc1ccc(NC(=O)C(Cc2ccc(CN)cc2)NC(=O)OCC2c3ccccc3-c3ccccc32)cc1` [Compound 175, (R)-[2-(4-AMINOMETHYL-PHENYL)-1-P-TOLYLCARBAMOYL-ETHYL]-CARBAMIC ACID 9H-FLUOREN-9-YLMETHYL ESTER] is lower in IC50: greater than 50 µM for the first, less than 10 µM for the second. The second is the more potent here.

`Cc1ccc(NC(=O)[C@H](CCCCN)NC(=O)NCc2ccc(Cl)cc2)cc1` [Compound 167, (S)-6-AMINO-2-[3-(4-CHLORO-BENZYL)-UREIDO]-HEXANOIC ACID P-TOLYLAMIDE] and `COc1ccc2cc(C(=O)NC(CCCCN)C(=O)Nc3ccc(C)cc3)ccc2c1` [Compound 66, (S)-6-METHOXY-NAPHTHALENE-2-CARBOXYLIC ACID (5-AMINO-1-P-TOLYLCARBAMOYL-PENTYL)-AMIDE] cannot be ordered by IC50: greater than 50 µM for the first, greater than 50 µM for the second.

`Cc1ccc(NC(=O)C2CCCCN2C(=O)OCC2c3ccccc3-c3ccccc32)cc1` [Compound 123, (R)-2-P-TOLYLCARBAMOYL-PIPERIDINE-1-CARBOXYLIC ACID 9H-FLUOREN-9-YLMETHYL ESTER] gave an IC50 greater than 50 µM.
